Target: T1, Cathepsin K (Homo sapiens, UniProt P43235)
T1 sequence (P43235 whole entry): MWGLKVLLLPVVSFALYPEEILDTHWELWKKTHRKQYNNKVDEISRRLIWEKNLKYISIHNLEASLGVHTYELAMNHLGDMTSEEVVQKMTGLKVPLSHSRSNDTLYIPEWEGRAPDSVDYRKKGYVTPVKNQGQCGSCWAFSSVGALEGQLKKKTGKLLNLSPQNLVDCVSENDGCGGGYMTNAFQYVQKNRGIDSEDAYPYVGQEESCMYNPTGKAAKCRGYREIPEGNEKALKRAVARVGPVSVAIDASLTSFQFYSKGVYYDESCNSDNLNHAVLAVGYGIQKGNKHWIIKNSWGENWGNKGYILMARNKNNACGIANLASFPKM
Assay: Inhibition of cathepsin K by fluorimetric assay

Row | Compound | IC50
1 | c1ccc2c3c([nH]c2c1)C(Cc1c[nH]cn1)NCC3 (configuration not stated) [HAPLOSCLERIDAMINE] | 26 µM
2 | NCCc1c[nH]c2ccccc12 [TRYPTAMINE] | 15 µM
